Consider 25 molecules from patent US20230183237A1, “COMPETITIVE AND NONCOMPETITIVE INHIBITORS OF THE MUSCARINIC ACETYLCHOLINE RECEPTOR M5” (Vanderbilt University, priority 2020, published 2023).

Read-outs that look alike come from different tables or passages of the source. Bounds are passed on as bounds.

The target of this assay is T1, hM5 (Homo sapiens, UniProt P08912).
T1 construct: expressed in transfected cells
T1 sequence (P08912 1-532): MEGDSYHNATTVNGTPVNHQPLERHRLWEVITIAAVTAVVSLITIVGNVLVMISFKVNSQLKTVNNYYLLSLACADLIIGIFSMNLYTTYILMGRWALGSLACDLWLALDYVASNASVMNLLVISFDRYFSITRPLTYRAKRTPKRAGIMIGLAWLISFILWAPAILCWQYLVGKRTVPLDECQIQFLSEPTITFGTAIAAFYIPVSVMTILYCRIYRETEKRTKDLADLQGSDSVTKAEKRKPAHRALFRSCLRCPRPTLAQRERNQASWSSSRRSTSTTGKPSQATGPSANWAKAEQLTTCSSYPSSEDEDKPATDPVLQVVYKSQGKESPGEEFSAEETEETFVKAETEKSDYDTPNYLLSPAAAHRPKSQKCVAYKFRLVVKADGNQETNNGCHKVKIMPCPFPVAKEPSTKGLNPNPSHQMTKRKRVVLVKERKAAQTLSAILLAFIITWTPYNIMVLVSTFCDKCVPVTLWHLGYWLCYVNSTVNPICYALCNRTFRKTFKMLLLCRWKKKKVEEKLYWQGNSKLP
As to the kind of experiment: Calcium mobilization concentration-response (IC50 vs EC80 acetylcholine), CHO hM5. As to conditions: CELL LINE hM5, read-out: IC50. It counts as cell-based. A digest of the protocol:
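CHO cells stably expressing hM5, dye-loaded, in HBSS/20 mM HEPES/2.5 mM probenecid, pH 7.4. Compounds were pre-incubated 140 s before an EC80 acetylcholine challenge, with calcium flux read kinetically.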
A general note: Calcium flux is commonly read through the fluorescence of an indicator in the cells.

Setting [1] is: calcium mobilization, EC80 acetylcholine addition.

As a reminder, the IC50 is the concentration that inhibits the measured activity by half. As for `[2H]C1([2H])CC(c2cn3ncnc3cc2Cl)CC([2H])([2H])N1S(=O)(=O)c1cnn(C)c1CC#N` [Compound 621, 2-(4-((4-(7-chloro-[1,2,4]triazolo[1,5-a]pyridin-6-yl)piperidin-1-yl-2,2,6,6-d4)sulfonyl)-1-methyl-1H-pyrazol-5-yl)acetonitrile], under “vs EC80 acetylcholine”, the IC50 came to 43 nM.
The same measure, in the same setting: with `CC(C)Oc1c(S(=O)(=O)N2CCC(c3cn4ncnc4cc3Cl)CC2)cnn1C` [Compound 604, 7-chloro-6-(1-((5-isopropoxy-1-methyl-1H-pyrazol-4-yl)sulfonyl)piperidin-4-yl)-[1,2,4]triazolo[1,5-a]pyridine] the figure was 159 nM; with `Cc1cc2ncnn2cc1C1(F)CCN(S(=O)(=O)c2cn(C)nn2)CC1` [Compound 588, 6-(4-fluoro-1-((1-methyl-1H-1,2,3-triazol-4-yl)sulfonyl)piperidin-4-yl)-7-methyl-[1,2,4]triazolo[1,5-a]pyridine], 2110 nM.
With `Cc1cc2ncnn2cc1C1CCN(S(=O)(=O)c2cnn3ccccc23)CC1` [Compound 508, 7-methyl-6-(1-(pyrazolo[1,5-a]pyridin-3-ylsulfonyl)piperidin-4-yl)-[1,2,4]triazolo[1,5-a]pyridine], where the note is “vs EC80 acetylcholine”, the IC50 stood at 20 nM.
On the same count and under the same terms, with `Cc1cc2ncnn2nc1C1CCN(S(=O)(=O)c2cnc(Cl)s2)CC1` [Compound 536, 2-chloro-5-((4-(7-methyl-[1,2,4]triazolo[1,5-b]pyridazin-6-yl)piperidin-1-yl)sulfonyl)thiazole] the figure was 9510 nM; with `Cc1ncc(S(=O)(=O)N2CCC(c3cnc(C(F)(F)F)cc3C)CC2)s1` [Compound 397, 2-methyl-5-((4-(4-methyl-6-(trifluoromethyl)pyridin-3-yl)piperidin-1-yl)sulfonyl)thiazole], > 10000 nM; with `COc1c(S(=O)(=O)N2CCC(c3cn4ncnc4cc3C(F)(F)F)CC2)cnn1C` [Compound 585, 6-(1-((5-methoxy-1-methyl-1H-pyrazol-4-yl)sulfonyl)piperidin-4-yl)-7-(trifluoromethyl)-[1,2,4]triazolo[1,5-a]pyridine], 67 nM.
Consider `O=S(=O)(c1ccc2c(c1)CCO2)N1CCC(c2nccs2)CC1` [Compound 98, 2-(1-((2,3-dihydrobenzofuran-5-yl)sulfonyl)piperidin-4-yl)thiazole], for which the IC50 under setting [1] was > 10000 nM.
Turning to `Cc1cc2ncnn2nc1C1CCN(S(=O)(=O)c2ccc3c(c2)N(C)CCO3)CC1` [Compound 166, 4-methyl-6-((4-(7-methyl-[1,2,4]triazolo[1,5-b]pyridazin-6-yl)piperidin-1-yl)sulfonyl)-3,4-dihydro-2H-benzo[b][1,4]oxazine], the IC50 under setting [1] was 1600 nM.
Consider `Cc1cc2ncnn2cc1C1CCN(S(=O)(=O)c2cnn(C)c2C(F)F)CC1` [Compound 156, 6-(1-((5-(difluoromethyl)-1-methyl-1H-pyrazol-4-yl)sulfonyl)piperidin-4-yl)-7-methyl-[1,2,4]triazolo[1,5-a]pyridine], for which the IC50 under setting [1] stood at 9.1 nM.
On to `Cn1nc(C2CCN(S(=O)(=O)c3cnn(C)c3Cl)CC2)cc1-c1ccco1` [Compound 591, 1-((5-Chloro-1-methyl-1H-pyrazol-4-yl)sulfonyl)-4-(5-(furan-2-yl)-1-methyl-1H-pyrazol-3-yl)piperidine], for which the half-inhibitory concentration (IC50) (vs EC80 acetylcholine) is > 10000 nM.
Turning to `Cc1cc2ccnn2cc1C1CCN(S(=O)(=O)c2cnn(C)c2C)CC1` [Compound 453, 6-(1-((1,5-dimethyl-1H-pyrazol-4-yl)sulfonyl)piperidin-4-yl)-5-methylpyrazolo[1,5-a]pyridine], the IC50 (vs EC80 acetylcholine) was found to be 216 nM.
With `Cc1cc2ncnn2cc1C1CCN(S(=O)(=O)c2ccccc2-c2ccno2)CC1` [Compound 96, 5-(2-((4-(7-methyl-[1,2,4]triazolo[1,5-a]pyridin-6-yl)piperidin-1-yl)sulfonyl)phenyl)isoxazole], the IC50 under setting [1] is > 10000 nM.
With `COc1c(S(=O)(=O)N2CCC(c3cn4ncnc4cc3Cl)CC2)c(I)nn1C` (single isomer, unassigned) [Compound 625, 7-Chloro-6-(1-((3-iodo-5-methoxy-1-methyl-1H-pyrazol-4-yl)sulfonyl)piperidin4-yl)-[1,2,4]triazolo[1,5-a]pyridine], the IC50 (vs EC80 acetylcholine) is 27 nM.
For the molecule `Cc1cc2ncnn2cc1C1CCN(S(=O)(=O)c2c(Cl)nc3sccn23)CC1` [Compound 324, 6-chloro-5-((4-(7-methyl-[1,2,4]triazolo[1,5-a]pyridin-6-yl)piperidin-1-yl)sulfonyl)imidazo[2,1-b]thiazole], the IC50 under setting [1] worked out at 13 nM.
For the molecule `Cc1sc(C(N)=O)nc1C1CCN(S(=O)(=O)c2cnn(C)c2C)CC1` [Compound 213, 4-(1-((1,5-Dimethyl-1H-pyrazol-4-yl)sulfonyl)piperidin-4-yl)-5-methylthiazole-2-carboxamide], the IC50 under setting [1] was determined as 5800 nM.
Same read-out and setting: for `Cc1cc2ncnn2nc1C1CCN(S(=O)(=O)c2cnn(C)c2C)CC1` [Compound 165, 6-(1-((1,5-dimethyl-1H-pyrazol-4-yl)sulfonyl)piperidin-4-yl)-7-methyl-[1,2,4]triazolo[1,5-b]pyridazine] the value was 60 nM.
For the molecule `Cc1cc2ncnn2nc1C1CCN(S(=O)(=O)c2ccc3c(c2)OCCO3)CC1` [Compound 184, 6-(1-((2,3-dihydrobenzo[b][1,4]dioxin-6-yl)sulfonyl)piperidin-4-yl)-7-methyl-[1,2,4]triazolo[1,5-b]pyridazine], the IC50 under setting [1] was > 10000 nM.
Regarding `COc1ccc(S(=O)(=O)N2CCC(c3nn4ncnc4cc3C)CC2)c(C)c1` [Compound 186, 6-(1-((4-methoxy-2-methylphenyl)sulfonyl)piperidin-4-yl)-7-methyl-[1,2,4]triazolo[1,5-b]pyridazine], under setting [1], the IC50 was > 10000 nM.
Regarding `Cc1cc2ncnn2cc1C1CCN(S(=O)(=O)c2cccc3c2OCCO3)CC1` [Compound 152, 6-(1-((2,3-dihydrobenzo[b]dioxin-5-yl)sulfonyl)piperidin-4-yl)-7-methyl-[1,2,4]triazolo[1,5-a]pyridine], under setting [1], the half-inhibitory concentration (IC50) was 117 nM.
For `CCc1cc2ncnn2cc1C1CCN(S(=O)(=O)c2cnn3ccccc23)CC1` [Compound 509, 7-ethyl-6-(1-(pyrazolo[1,5-a]pyridin-3-ylsulfonyl)piperidin-4-yl)-[1,2,4]triazolo[1,5-a]pyridine], the IC50 (vs EC80 acetylcholine) was found to be 150 nM.
In the case of `Cc1cc2nccn2nc1C1CCN(S(=O)(=O)c2ccc(Cl)s2)CC1` [Compound 37, 6-(1-((5-chlorothiophen-2-yl)sulfonyl)piperidin-4-yl)-7-methylimidazo[1,2-b]pyridazine], the IC50 under setting [1] is > 10000 nM.
Consider `Cc1cc2ncnn2nc1C1CCN(S(=O)(=O)c2ccc3ncsc3c2)CC1` [Compound 185, 6-((4-(7-methyl-[1,2,4]triazolo[1,5-b]pyridazin-6-yl)piperidin-1-yl)sulfonyl)benzo[d]thiazole], for which, under setting [1], the IC50 was > 10000 nM.
With `Cc1cc2nccn2nc1N1CCN(S(=O)(=O)c2cnn(C)c2C)CC1` [Compound 434, 6-[4-(1,5-Dimethylpyrazol-4-yl)sulfonylpiperazin-1-yl]-7-methyl-imidazo[1,2-b]pyridazine], the IC50 (vs EC80 acetylcholine) came to 43 nM.
As to `COc1cc2ncnn2cc1C1CCN(S(=O)(=O)c2cc3c(cc2F)OCC3)CC1` [Compound 81, 6-(1-((6-fluoro-2,3-dihydrobenzofuran-5-yl)sulfonyl)piperidin-4-yl)-7-methoxy-[1,2,4]triazolo[1,5-a]pyridine], the IC50 under setting [1] was > 10000 nM.
